Drawing on PubChem BioAssay AID2021 (NMMLSC, 2009), this text covers EC50 and Ki for 40 compounds.

This test has as its target Cell division control protein 42 homolog (Homo sapiens) (UniProt P60953). The test can be described thus: Cdc42 activated mutant GTP-binding inhibitors, SAR follow-up, biochemical, bead-based multiplex flow cytometry, additional SAR set (AID 2021). The note with it: fluorescent GTP binding; for Ki: measured here: Ki derived from EC50.

Molecules are shown by their SMILES. The source made the active and inactive calls. The rule behind the calls is not given here.

Chain of Cell division control protein 42 homolog (Homo sapiens) (P60953 whole entry, looked up): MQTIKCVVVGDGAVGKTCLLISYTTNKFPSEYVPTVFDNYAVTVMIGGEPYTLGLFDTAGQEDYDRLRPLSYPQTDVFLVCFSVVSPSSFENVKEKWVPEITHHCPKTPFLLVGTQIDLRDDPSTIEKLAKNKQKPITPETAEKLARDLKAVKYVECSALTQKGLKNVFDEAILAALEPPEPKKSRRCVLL

On to `O=Nc1c(-c2c(O)[nH]c3c(F)cccc23)[nH]c2ccccc12`, for which the EC50 was > 30 µM (inactive).
For `O=C(C#Cc1ccccc1)c1ccc(OC(F)(F)F)cc1`, the EC50 was > 30 µM (inactive).
`N#Cc1c(-c2ccc(Cl)cc2)c(C(=O)c2ccccc2)n(S(=O)(=O)c2ccc([N+](=O)[O-])cc2)c1N`: the EC50 entry was “inactive” and the Ki was 0.93 µM.
Turning to `O=C1Nc2cccc(Br)c2/C1=C1/Cc2ccccc2C1=O`, the EC50 was > 30 µM (inactive).
On the same count and under the same terms, under `O=C1Nc2c(Br)cccc2/C1=C1/Cc2ccccc2C1=O` stands > 30 µM (inactive).
As for `CCCCS(=O)(=O)n1c(N)c(C#N)c(-c2cc(OC)c(OC)c(OC)c2)c1C(=O)c1ccccc1`, the EC50 result is “inactive” and the Ki is 2.88 µM.
As to `CC1=C(CC(=O)O)c2cc(F)ccc2/C1=C/c1ccc(S(C)=O)cc1` (stereo not given), the EC50 is > 30 µM (inactive).
On the same count and under the same terms, under `COC(=O)c1ccc(C(=O)C#Cc2ccccc2)cc1` stands > 30 µM (inactive); under `O=C(C#Cc1ccccc1)c1ccc(Cl)cc1`, > 30 µM (inactive).
In the case of `O=Nc1c(-c2c(O)[nH]c3c(Br)cccc23)[nH]c2ccccc12`, the EC50 entry was “inactive” and the Ki is 8.52 µM.
Regarding `O=C1C(c2c(O)[nH]c3ccccc23)=Nc2ccccc21`, the EC50 is > 30 µM (inactive).
Still for that read-out and setting: as for `O=C(C#Cc1ccccc1)c1ccccc1`, the figure is > 30 µM (inactive); as for `COc1ccc(S(=O)(=O)n2c(N)c(C#N)c(-c3ccccc3)c2C(=O)c2ccc(Br)cc2)cc1`, > 30 µM (inactive).
Same read-out and setting: as for `O=C1C(c2c(O)[nH]c3ccc(Br)cc23)=Nc2ccccc21`, the figure is > 30 µM (inactive).
Still for that read-out and setting: as for `CC(C(=O)O)c1cccc(Oc2ccccc2)c1` (stereo not given), the figure is > 30 µM (inactive).
Consider `O=C1C(c2c(O)[nH]c3c(Br)cccc23)=Nc2ccccc21`, for which the EC50 is > 30 µM (inactive).
Same read-out and setting: as for `O=C1C(c2c(O)[nH]c3c(F)cccc23)=Nc2ccccc21`, the figure is > 30 µM (inactive).
Same read-out and setting: under `CC(=O)Oc1ccccc1C(=O)O` stands > 30 µM (inactive).
Turning to `CC(C)Cc1ccc([C@H](C)C(=O)O)cc1`, the EC50 entry is “inactive” and the inhibitory constant (Ki) is 0.99 µM.
On the same counts, the results for `CSc1ccc(/C=C2/C(C)=C(CC(=O)O)c3cc(F)ccc32)cc1` are “inactive” and 7.52 µM.
As to `O=C1Nc2ccccc2/C1=C1/Cc2ccccc2C1=O`, the EC50 is > 30 µM (inactive).
On the same count and under the same terms, under `COc1ccc2cc(CC(=O)O)ccc2c1` stands > 30 µM (inactive); under `O=C(C#Cc1ccccc1)c1ccccc1[N+](=O)[O-]`, > 30 µM (inactive); under `O=Nc1c(-c2c(O)[nH]c3ccc(Br)cc23)[nH]c2ccccc12`, > 30 µM (inactive).
Consider `O=C(C#Cc1ccccc1)c1ccc(F)cc1`, for which the EC50 result is “inactive” and the Ki came to 9.15 µM.
The corresponding values for `O=C1N=c2ccccc2=C1c1[nH]c(=O)[nH]c1O` are “inactive” and 0.81 µM.
On to `CC(C(=O)O)c1cccc(C(=O)c2ccccc2)c1` (stereo not given), for which the EC50 is > 30 µM (inactive).
The same measure, in the same setting: under `O=C(C#Cc1ccccc1)c1cccnc1` stands > 30 µM (inactive).
On to `COc1ccc(S(=O)(=O)n2c(N)c(C#N)c(-c3cncc(Br)c3)c2C(=O)c2ccccc2)cc1`, for which the concentration giving a half-maximal response (EC50) is 9.98 µM and the Ki worked out at 1.54 µM.
The corresponding values for `O=[N+]([O-])c1ccc(C#Cc2ccccc2)cc1` are 13.7 µM and 2.12 µM.
As to `COc1ccc(-c2c(C#N)c(N)n(S(C)(=O)=O)c2C(=O)c2ccccc2)cc1Br`, the EC50 result was “inactive” and the Ki was 2.87 µM.
In the case of `COc1ccc(C(=O)C#Cc2ccccc2)cc1`, the EC50 is > 30 µM (inactive).
The same measure, in the same setting: under `O=Nc1c(-c2c(O)[nH]c3ccccc23)[nH]c2ccccc12` stands > 30 µM (inactive).
Same read-out and setting: under `COc1ccc(S(=O)(=O)n2c(N)c(C#N)c(-c3cc(Br)c(OC)c(OC)c3)c2C(=O)c2ccccc2)cc1` stands > 30 µM (inactive); under `O=C(C#Cc1ccccc1)c1ccc([N+](=O)[O-])cc1`, > 30 µM (inactive); under `O=C1N=c2ccccc2=C1c1[nH]c(=S)[nH]c1O`, > 30 µM (inactive).
On the same count and under the same terms, under `COc1cc(-c2c(C#N)c(N)n(S(=O)(=O)c3c(C(C)C)cc(C(C)C)cc3C(C)C)c2C(=O)c2ccccc2)cc(OC)c1OC` stands > 30 µM (inactive); under `O=Nc1c(-c2c(O)[nH]c3c(Cl)cccc23)[nH]c2ccccc12`, > 30 µM (inactive).
As to `O=C1C(c2c(O)[nH]c3c(Cl)cccc23)=Nc2ccccc21`, the EC50 is > 30 µM (inactive).
As for `N#Cc1ccc(C(=O)C#Cc2ccccc2)cc1`, the EC50 was > 30 µM (inactive).

Broadly, the EC50 is the concentration that produces a half-maximal response. The term Ki denotes the dissociation constant of the complex between target and ligand, obtained from inhibition or displacement.
